Here are results for five compounds from ChEMBL document CHEMBL4616712, “Design and Synthesis of 1,2-Deoxy-pyranose Derivatives of Spliceostatin A toward Prostate Cancer Treatment” (ACS Med Chem Lett, 2020).

Each structure is given as a SMILES string.

Series [1] relates to CWR22R. Nature of the series: Suppression of AR-V7 expression in human CWR22Rv1 cells expressing GFP measured after 3 days by FACS assay. The class given is functional, cell-based. The conditions noted are these: 22Rv1, 72 h.
Series [2] is described as follows: Toxicity in BALB/c mouse assessed as mouse death at 280 nM/body, iv measured after 24 hrs. The class given is organism-based. Particulars: in vivo, 0.28 µM.
Series [3] has as its system LNCaP. Nature of the series: Suppression of AR-V7 expression in human LNCAP cells expressing GFP. The format is functional, cell-based.
Series [4] is described as follows: Toxicity in BALB/c mouse assessed as effect on weight loss at 280 nM/body, iv administered on day 2 and day 4. The class given is organism-based. The conditions noted are these: in vivo, 0.28 µM.
Series [5] is described as follows: Toxicity in BALB/c mouse assessed as mouse death at 280 nM/body, iv administered on day 2 and day 4. The format is organism-based. Particulars: in vivo, 0.28 µM.

`CO[C@]1(C)C[C@@]2(CO2)[C@H](O)[C@@H](/C=C/C(C)=C/C[C@@H]2O[C@H](C)[C@H](NC(=O)/C=C\[C@H](C)OC(C)=O)C[C@@H]2C)O1` had an IC50 in series [1] of 0.6 nM. In addition, the Activity entry in series [2] is listed as “Toxic”.

In series [1], `CC(=O)O[C@@H](C)/C=C\C(=O)N[C@@H]1C[C@H](C)[C@H](C/C=C(C)/C=C/[C@H]2OCC[C@]3(O[C@H]3C)[C@@H]2O)O[C@@H]1C` yielded an IC50 of 187 nM. Consider `CC(=O)O[C@@H](C)/C=C\C(=O)N[C@@H]1C[C@H](C)[C@H](C/C=C(C)/C=C/[C@H]2O[C@H](c3ccccc3)C[C@@]3(CO3)[C@@H]2O)O[C@@H]1C`, for which, in series [3], the IC50 stood at 132 nM. In turn, `CC(=O)O[C@@H](C)/C=C\C(=O)N[C@@H]1C[C@H](C)[C@H](C/C=C(C)/C=C/[C@H]2OCC[C@]3(O[C@@H]3C)[C@@H]2O)O[C@@H]1C` had a 50% inhibitory concentration (IC50) in series [1] of 202 nM. On to `CC(=O)O[C@@H](C)/C=C\C(=O)N[C@@H]1C[C@H](C)[C@H](C/C=C(C)/C=C/[C@H]2OCC[C@@]3(CO3)[C@@H]2O)O[C@@H]1C`, for which, in series [1], the concentration for half-maximal inhibition (IC50) was 3.3 nM. The Activity result in series [4] and in series [5] was “Non-Toxic” in each case.
